Active and inactive are the calls of the source. The rule behind the calls is not given here.
These compounds were tested against Nucleotide-binding oligomerization domain-containing protein 2 (Homo sapiens) (UniProt Q9HC29) (assay: Activation of NOD2 expressed in HEK293 cells assessed as increase in IL8 secretion measured at 0.01 to 0.7 uM after 18 hrs by ELISA).
Type: cell-based

Chain of Nucleotide-binding oligomerization domain-containing protein 2 (Homo sapiens) (Q9HC29 whole entry, the tested form may be a part): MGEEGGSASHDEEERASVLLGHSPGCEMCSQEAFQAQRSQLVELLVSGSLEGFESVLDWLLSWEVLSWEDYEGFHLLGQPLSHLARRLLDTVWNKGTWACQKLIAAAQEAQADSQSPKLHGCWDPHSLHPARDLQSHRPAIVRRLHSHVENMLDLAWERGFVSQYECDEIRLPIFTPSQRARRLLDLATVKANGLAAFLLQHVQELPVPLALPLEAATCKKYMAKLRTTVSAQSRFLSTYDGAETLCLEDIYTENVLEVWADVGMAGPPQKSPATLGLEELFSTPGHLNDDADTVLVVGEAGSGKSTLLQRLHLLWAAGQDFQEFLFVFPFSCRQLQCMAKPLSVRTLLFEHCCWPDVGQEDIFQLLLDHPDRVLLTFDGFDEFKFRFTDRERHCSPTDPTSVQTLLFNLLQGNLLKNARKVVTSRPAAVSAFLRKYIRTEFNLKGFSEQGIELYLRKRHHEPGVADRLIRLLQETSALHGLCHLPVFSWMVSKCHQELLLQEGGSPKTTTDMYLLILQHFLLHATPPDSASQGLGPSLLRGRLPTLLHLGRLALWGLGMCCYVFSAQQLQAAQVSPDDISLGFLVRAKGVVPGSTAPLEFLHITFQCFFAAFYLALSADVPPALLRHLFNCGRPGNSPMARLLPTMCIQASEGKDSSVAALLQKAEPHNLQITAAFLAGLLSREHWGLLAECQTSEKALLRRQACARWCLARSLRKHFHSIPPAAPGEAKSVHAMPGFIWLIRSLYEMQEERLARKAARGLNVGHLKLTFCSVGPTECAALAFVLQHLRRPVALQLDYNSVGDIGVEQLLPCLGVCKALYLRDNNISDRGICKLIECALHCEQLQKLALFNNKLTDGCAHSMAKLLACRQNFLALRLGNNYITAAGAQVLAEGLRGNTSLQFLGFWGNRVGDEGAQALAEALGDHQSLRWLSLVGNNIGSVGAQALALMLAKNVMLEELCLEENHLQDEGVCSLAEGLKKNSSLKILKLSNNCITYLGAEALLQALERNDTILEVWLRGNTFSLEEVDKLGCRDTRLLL

| SMILES | Activity |
| --- | --- |
| CC(=O)N[C@H]1C(O)O[C@H](CO)[C@@H](O)[C@@H]1O[C@H](C)C(=O)N[C@@H](C)C(=O)N[C@H](CCC(=O)N[C@@H](CCC[C@@H](N)C(=O)O)C(=O)O)C(=O)O (some centres not stated) | inactive |
| CC(=O)N[C@H]1C(O)O[C@H](CO)[C@@H](O)[C@@H]1O[C@H](C)C(=O)N[C@@H](C)C(=O)N[C@H](CCC(=O)O)C(N)=O (some centres not stated) | Active |
| CC(=O)N[C@H]1C(O)O[C@H](CO)[C@@H](O)[C@@H]1O[C@H](C)C(=O)N[C@@H](C)C(=O)N[C@H](CCC(=O)N[C@@H](CCCCNC(=O)CCCC[C@@H]1SC[C@@H]2NC(=O)N[C@@H]21)C(=O)O)C(=O)O (some centres not stated) | Active |
| CC(=O)N[C@H]1C(O)O[C@H](COC(=O)CCCCCNC(=O)CCCCCNC(=O)CCCCCNC(=O)CCCC[C@@H]2SC[C@@H]3NC(=O)N[C@@H]32)[C@@H](O)[C@@H]1O[C@H](C)C(=O)N[C@@H](C)C(=O)N[C@H](CCC(=O)O)C(N)=O (some centres not stated) | Active |
| CC(=O)N[C@H]1C(O)O[C@H](CO)[C@@H](O)[C@@H]1O[C@H](C)C(=O)N[C@@H](C)C(=O)N[C@H](CCC(=O)N[C@@H](CCCCNC(=O)CCCCCNC(=O)CCCCCNC(=O)CCCC[C@@H]1SC[C@@H]2NC(=O)N[C@@H]21)C(=O)O)C(=O)O (some centres not stated) | Active |
| CC(=O)N[C@H]1C(O)O[C@H](CO)[C@@H](O)[C@@H]1O[C@H](C)C(=O)N[C@@H](C)C(=O)N[C@H](CCC(=O)N[C@@H](CCCCN)C(=O)O)C(=O)O (some centres not stated) | Active |

Next, values leading:

| Activity | SMILES |
| --- | --- |
| Active | CC(=O)N[C@H]1[C@@H](OP(=O)(O)OP(=O)(O)OC[C@H]2O[C@@H](n3ccc(=O)[nH]c3=O)[C@H](O)[C@@H]2O)O[C@H](CO)[C@@H](O)[C@@H]1O[C@H](C)C(=O)N[C@@H](C)C(=O)N[C@H](CCC(=O)N[C@@H](CCC[C@@H](NC(=O)CCCC[C@@H]1SC[C@@H]2NC(=O)N[C@@H]21)C(=O)O)C(=O)O)C(=O)O |
| Active | CC(=O)N[C@H]1[C@@H](OP(=O)(O)OP(=O)(O)OC[C@H]2O[C@@H](n3ccc(=O)[nH]c3=O)[C@H](O)[C@@H]2O)O[C@H](CO)[C@@H](O)[C@@H]1O[C@H](C)C(=O)N[C@@H](C)C(=O)N[C@H](CCC(=O)N[C@@H](CCCCNC(=O)CCCCCNC(=O)CCCCCNC(=O)CCCC[C@@H]1SC[C@@H]2NC(=O)N[C@@H]21)C(=O)O)C(=O)O |
| Active | CC(=O)N[C@H]1[C@@H](OP(=O)(O)OP(=O)(O)OC[C@H]2O[C@@H](n3ccc(=O)[nH]c3=O)[C@H](O)[C@@H]2O)O[C@H](CO)[C@@H](O)[C@@H]1O[C@H](C)C(=O)N[C@@H](C)C(=O)N[C@H](CCC(=O)N[C@@H](CCCCNC(=O)CCCC[C@@H]1SC[C@@H]2NC(=O)N[C@@H]21)C(=O)O)C(=O)O |
| Active | CC(=O)N[C@H]1[C@@H](OP(=O)(O)OP(=O)(O)OC[C@H]2O[C@@H](n3ccc(=O)[nH]c3=O)[C@H](O)[C@@H]2O)O[C@H](CO)[C@@H](O)[C@@H]1O[C@H](C)C(=O)N[C@@H](C)C(=O)N[C@H](CCC(=O)N[C@@H](CCC[C@@H](N)C(=O)O)C(=O)O)C(=O)O |
| Active | CC(=O)N[C@H]1[C@@H](OP(=O)(O)OP(=O)(O)OC[C@H]2O[C@@H](n3ccc(=O)[nH]c3=O)[C@H](O)[C@@H]2O)O[C@H](CO)[C@@H](O)[C@@H]1O[C@H](C)C(=O)N[C@@H](C)C(=O)N[C@H](CCC(=O)N[C@@H](CCCCN)C(=O)O)C(=O)O |
| inactive | CC(=O)N[C@H]1C(O)O[C@H](CO)[C@@H](O)[C@@H]1O[C@H](C)C(=O)N[C@@H](C)C(=O)N[C@H](CCC(=O)N[C@@H](CCC[C@@H](NC(=O)CCCC[C@@H]1SC[C@@H]2NC(=O)N[C@@H]21)C(=O)O)C(=O)O)C(=O)O (some centres not stated) |

— ChEMBL document CHEMBL1777793, “Synthesis of biotinylated muramyl tripeptides with NOD2-stimulating activity” (Bioorg Med Chem Lett, 2011)
